In paper PMC10920890, “Biosensor and machine learning-aided engineering of an amaryllidaceae enzyme” (Nature Communications, 2024):

Target: RamR (Salmonella enterica, UniProt Q8ZR43, K63T/L66M/C134D/S137G)
Settings: variant 4NB2.1 (4NB2); LB medium, 37 °C; whole-cell biosensor

Chain of RamR (Q8ZR43 whole entry K63T/L66M/C134D/S137G): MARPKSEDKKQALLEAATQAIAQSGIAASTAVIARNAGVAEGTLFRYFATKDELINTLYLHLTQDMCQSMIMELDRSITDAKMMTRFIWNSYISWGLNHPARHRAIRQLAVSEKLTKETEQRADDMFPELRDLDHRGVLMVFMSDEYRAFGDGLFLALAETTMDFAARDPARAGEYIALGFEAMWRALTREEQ

COc1ccc(CNCCc2ccc(O)cc2)cc1O [4′-O-methylnorbelladine]
EC50: 20 µM
